Measured values as given in ChEMBL document CHEMBL6120963, “Discovery of Novel PROTAC SIRT6 Degraders with Potent Efficacy against Hepatocellular Carcinoma” (J Med Chem, 2024).
Active and inactive are the calls of the source. The calls are words filed in the database; no cut-off is given here.

Tests used:
[1] = system: SK-HEP1; experiment: Downregulation of NAIF1 expression in human SK-HEP1 cells at 2.5 uM incubated for 36 hrs in presence of MLN4924; type: functional, cell-based
[2] = Toxicity in BALB/c nude mouse xenografted with human SK-HEP1 cells assessed as pathological damage in lungs at 10 mg/kg treated for 28 to 30 days in presence of sorafenib by H and E staining based analysis; type: organism-based; conditions: in vivo, time 28-30 day
[3] = system: SK-HEP1; experiment: Downregulation of CCPG1 expression in human SK-HEP1 cells at 2.5 uM incubated for 36 hrs in presence of MLN4924; type: functional, cell-based
[4] = Toxicity in BALB/c nude mouse xenografted with human SK-HEP1 cells assessed as pathological damage in heart at 10 mg/kg treated for 28 to 30 days by H and E staining based analysis; type: organism-based; conditions: in vivo, time 28-30 day
[5] = target: T1, Protein cereblon/NAD-dependent protein deacylase sirtuin-6 (Homo sapiens, UniProt Q8N6T7+Q96SW2); experiment: PROTAC activity at CRBN/SIRT6 in human Hep3B cells assessed as induction of SIRT6 degradation incubated for 24 hrs by Western blot analysis; type: cell-based
Target sequence in this assay (Q8N6T7 2-355 limits assumed): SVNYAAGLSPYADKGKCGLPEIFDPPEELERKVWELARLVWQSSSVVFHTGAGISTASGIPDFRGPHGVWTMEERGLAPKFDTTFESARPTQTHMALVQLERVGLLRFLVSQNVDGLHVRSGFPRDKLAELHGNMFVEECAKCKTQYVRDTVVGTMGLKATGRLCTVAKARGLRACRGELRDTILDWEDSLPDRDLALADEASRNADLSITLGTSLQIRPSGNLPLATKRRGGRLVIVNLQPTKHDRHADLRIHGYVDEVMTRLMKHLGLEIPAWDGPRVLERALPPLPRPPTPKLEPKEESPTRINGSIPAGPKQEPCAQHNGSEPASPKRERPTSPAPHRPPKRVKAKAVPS
Target sequence in this assay (Q96SW2 whole entry partner): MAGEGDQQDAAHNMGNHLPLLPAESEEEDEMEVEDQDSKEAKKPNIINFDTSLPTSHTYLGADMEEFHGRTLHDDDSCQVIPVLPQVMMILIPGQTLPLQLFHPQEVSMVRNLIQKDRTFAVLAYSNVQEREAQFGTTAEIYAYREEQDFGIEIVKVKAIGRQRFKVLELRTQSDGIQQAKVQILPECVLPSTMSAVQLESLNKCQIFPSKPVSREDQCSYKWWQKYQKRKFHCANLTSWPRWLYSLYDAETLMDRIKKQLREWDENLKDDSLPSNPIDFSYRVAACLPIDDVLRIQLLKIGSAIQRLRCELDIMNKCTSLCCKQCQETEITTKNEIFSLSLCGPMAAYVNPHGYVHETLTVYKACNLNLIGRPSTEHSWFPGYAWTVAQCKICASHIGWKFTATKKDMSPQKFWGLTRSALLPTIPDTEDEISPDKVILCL

[6] = system: Huh-7; experiment: Effect on SIRT1 expression in human Huh-7 cells at 0.002 to 1 uM incubated for 36 hrs by Western blot analysis; type: functional, cell-based; conditions: dose 0.002-1 µM
[7] = system: SK-HEP1; experiment: Induction of apoptosis in human SK-HEP1 cells at 2.5 uM preincubated for 36 hrs followed by irradiation (3 Gy) by Annexin V-FITC/PI staining based flow cytometry; type: functional, cell-based
[8] = target: T1, Protein cereblon/NAD-dependent protein deacylase sirtuin-6; experiment: PROTAC activity at CRBN/SIRT6 in pomalidomide-treated human SK-HEP1 cells assessed as induction of SIRT6 degradation at 2.5 uM treated for 36 hrs by Western blot analysis; type: cell-based
Target sequence in this assay (Q8N6T7 2-355 limits assumed): as the sequence (Q8N6T7 2-355 limits assumed) above
Target sequence in this assay (Q96SW2 whole entry partner): as the sequence (Q96SW2 whole entry partner) above

[9] = target: T1, Protein cereblon/NAD-dependent protein deacylase sirtuin-6; experiment: PROTAC activity at CRBN/SIRT6 in human Huh-7 cells assessed as induction of SIRT6 degradation incubated for 36 hrs by Western blot analysis; type: cell-based
[10] = system: SK-HEP1; experiment: Effect of genes related to protein heterodimerization in human SK-HEP1 cells at 2.5 uM incubated for 36 hrs by GSEA analysis; type: functional, cell-based
[11] = Toxicity in BALB/c nude mouse xenografted with human SK-HEP1 cells assessed as pathological damage in liver at 10 mg/kg treated for 28 to 30 days in presence of sorafenib by H and E staining based analysis; type: organism-based; conditions: in vivo, time 28-30 day
[12] = target: T1, Protein cereblon/NAD-dependent protein deacylase sirtuin-6; experiment: PROTAC activity at CRBN/SIRT6 in human U2OS cells with DNA repair assessed as inhibition of CHD4 loading onto chromatin incubated for 36 hrs by FACS analysis; type: cell-based
Target sequence in this assay (Q8N6T7 2-355 limits assumed): as the sequence (Q8N6T7 2-355 limits assumed) above
Target sequence in this assay (Q96SW2 whole entry partner): as the sequence (Q96SW2 whole entry partner) above

[13] = Toxicity in BALB/c nude mouse xenografted with human SK-HEP1 cells assessed as pathological damage in spleen at 10 mg/kg treated for 28 to 30 days in presence of sorafenib by H and E staining based analysis; type: organism-based; conditions: in vivo, time 28-30 day
[14] = system: SK-HEP1; experiment: Downregulation of NAIF1 expression in human SK-HEP1 cells at 2.5 uM incubated for 36 hrs; type: functional, cell-based
[15] = system: SK-HEP1; experiment: Effect of genes related to mitochondrial matrix in human SK-HEP1 cells at 2.5 uM incubated for 36 hrs by GSEA analysis; type: functional, cell-based

In the case of Nc1cc(N2CCN(CC3CCN(c4cc5c(cc4F)C(=O)N(C4CCC(=O)NC4=O)C5=O)CC3)CC2)ccc1[N+](=O)[O-] (stereo unspecified), the Activity [1] is reported as “inactive”, the Activity [2] is reported as “Non-toxic” and the Activity [3] is reported as “inactive”. For the same compound, the Activity [4] was “Non-toxic”, the Activity [5] was “Active; Reached A Plateau After 36 Hrs Of Treatment” and the Activity [6] was “No effect”. The Activity [7] was “Active; Significant Effect Was Observed Before Being Exposed To Ir”, the Activity [8] was “inactive” and the DC50 [9] was 154 nM. The Activity ([9]; dose 0.008-5 µM) was “Dose-dependent-effect; But Reduced Degradation Efficiency Observed”, the Activity [10] was “Active” and the Activity [11] was “Non-toxic”. The inhibition [12] was “Active; Results In Decrease In Hr And Nhej Efficiencies”, the Activity [13] was “Non-toxic” and the Activity [14] was “Active”. The Activity [15] was “Active”.
